Here are results for 2 molecules from ChEMBL document CHEMBL2074533, “OATP1B1, OATP1B3, and mrp2 are involved in hepatobiliary transport of olmesartan, a novel angiotensin II blocker” (Drug Metab Dispos, 2006).

Data set [1] deals with ATP-binding cassette sub-family C member 2 (Rattus norvegicus, UniProt Q63120). In words: TP_TRANSPORTER: biliary excretion in EHBR rat. The settings on record: in vivo. The format is functional, organism-based, Bile.
In another data set the target is T1, OATP1B3 (Homo sapiens, UniProt Q9NPD5).
T1 sequence (Q9NPD5 whole entry): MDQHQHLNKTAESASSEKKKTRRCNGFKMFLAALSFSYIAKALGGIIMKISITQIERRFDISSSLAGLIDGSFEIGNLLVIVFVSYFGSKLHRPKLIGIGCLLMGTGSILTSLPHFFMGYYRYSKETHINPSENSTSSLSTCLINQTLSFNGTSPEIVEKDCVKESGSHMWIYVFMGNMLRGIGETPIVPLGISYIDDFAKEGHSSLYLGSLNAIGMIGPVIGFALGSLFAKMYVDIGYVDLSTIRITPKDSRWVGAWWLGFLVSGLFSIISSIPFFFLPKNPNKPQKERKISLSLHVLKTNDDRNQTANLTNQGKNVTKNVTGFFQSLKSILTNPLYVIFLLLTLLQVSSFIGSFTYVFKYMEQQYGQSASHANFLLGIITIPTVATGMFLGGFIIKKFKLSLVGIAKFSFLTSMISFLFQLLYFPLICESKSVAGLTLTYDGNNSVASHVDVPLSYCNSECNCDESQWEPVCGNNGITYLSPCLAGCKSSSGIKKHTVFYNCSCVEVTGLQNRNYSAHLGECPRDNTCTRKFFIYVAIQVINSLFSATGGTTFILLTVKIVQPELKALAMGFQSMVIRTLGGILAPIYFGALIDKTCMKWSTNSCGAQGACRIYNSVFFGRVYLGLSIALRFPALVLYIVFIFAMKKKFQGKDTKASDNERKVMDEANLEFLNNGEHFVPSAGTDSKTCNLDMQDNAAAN
In words: TP_TRANSPORTER: transport in OATP1B3-expressing oocytes. The format is functional, cell-based, Oocyte.

The target of data set [2] is T2, ATP-binding cassette sub-family C member 2 (Homo sapiens, UniProt Q92887). In words: TP_TRANSPORTER: transport in hCMV cells. Type of data set: functional, cell membranes, Canalicular membrane vesicle.
Data set [3] deals with T2, ATP-binding cassette sub-family C member 2. In words: TP_TRANSPORTER: transport in MRP2-expressing vesicles. The format is functional, subcellular.
For data set [4], the target named is T3, Hepatic sodium/bile acid cotransporter (Homo sapiens, UniProt Q14973).
T3 sequence (Q14973 whole entry): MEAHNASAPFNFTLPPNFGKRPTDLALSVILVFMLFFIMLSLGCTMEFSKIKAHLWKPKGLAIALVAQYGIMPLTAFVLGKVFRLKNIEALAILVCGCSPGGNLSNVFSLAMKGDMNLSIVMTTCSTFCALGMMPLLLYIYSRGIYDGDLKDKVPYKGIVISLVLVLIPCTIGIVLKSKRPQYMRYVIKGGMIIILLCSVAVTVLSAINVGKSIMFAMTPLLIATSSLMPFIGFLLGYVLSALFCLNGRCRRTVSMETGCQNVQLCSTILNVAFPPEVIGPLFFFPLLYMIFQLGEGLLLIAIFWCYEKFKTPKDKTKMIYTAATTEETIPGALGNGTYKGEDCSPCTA
In words: TP_TRANSPORTER: transport in NTCP-transfected HEK-293 cells. The format is functional, cell-based. Conditions: hek293.

Substrate in data set [5]: CCCc1nc(C(C)(C)O)c(C(=O)O)n1Cc1ccc(-c2ccccc2-c2nnn[nH]2)cc1
In words: TP_TRANSPORTER: transport in OATP1B1-expressing oocytes. Type of data set: functional, cell-based, Oocyte.

T2 sequence (Q92887 whole entry): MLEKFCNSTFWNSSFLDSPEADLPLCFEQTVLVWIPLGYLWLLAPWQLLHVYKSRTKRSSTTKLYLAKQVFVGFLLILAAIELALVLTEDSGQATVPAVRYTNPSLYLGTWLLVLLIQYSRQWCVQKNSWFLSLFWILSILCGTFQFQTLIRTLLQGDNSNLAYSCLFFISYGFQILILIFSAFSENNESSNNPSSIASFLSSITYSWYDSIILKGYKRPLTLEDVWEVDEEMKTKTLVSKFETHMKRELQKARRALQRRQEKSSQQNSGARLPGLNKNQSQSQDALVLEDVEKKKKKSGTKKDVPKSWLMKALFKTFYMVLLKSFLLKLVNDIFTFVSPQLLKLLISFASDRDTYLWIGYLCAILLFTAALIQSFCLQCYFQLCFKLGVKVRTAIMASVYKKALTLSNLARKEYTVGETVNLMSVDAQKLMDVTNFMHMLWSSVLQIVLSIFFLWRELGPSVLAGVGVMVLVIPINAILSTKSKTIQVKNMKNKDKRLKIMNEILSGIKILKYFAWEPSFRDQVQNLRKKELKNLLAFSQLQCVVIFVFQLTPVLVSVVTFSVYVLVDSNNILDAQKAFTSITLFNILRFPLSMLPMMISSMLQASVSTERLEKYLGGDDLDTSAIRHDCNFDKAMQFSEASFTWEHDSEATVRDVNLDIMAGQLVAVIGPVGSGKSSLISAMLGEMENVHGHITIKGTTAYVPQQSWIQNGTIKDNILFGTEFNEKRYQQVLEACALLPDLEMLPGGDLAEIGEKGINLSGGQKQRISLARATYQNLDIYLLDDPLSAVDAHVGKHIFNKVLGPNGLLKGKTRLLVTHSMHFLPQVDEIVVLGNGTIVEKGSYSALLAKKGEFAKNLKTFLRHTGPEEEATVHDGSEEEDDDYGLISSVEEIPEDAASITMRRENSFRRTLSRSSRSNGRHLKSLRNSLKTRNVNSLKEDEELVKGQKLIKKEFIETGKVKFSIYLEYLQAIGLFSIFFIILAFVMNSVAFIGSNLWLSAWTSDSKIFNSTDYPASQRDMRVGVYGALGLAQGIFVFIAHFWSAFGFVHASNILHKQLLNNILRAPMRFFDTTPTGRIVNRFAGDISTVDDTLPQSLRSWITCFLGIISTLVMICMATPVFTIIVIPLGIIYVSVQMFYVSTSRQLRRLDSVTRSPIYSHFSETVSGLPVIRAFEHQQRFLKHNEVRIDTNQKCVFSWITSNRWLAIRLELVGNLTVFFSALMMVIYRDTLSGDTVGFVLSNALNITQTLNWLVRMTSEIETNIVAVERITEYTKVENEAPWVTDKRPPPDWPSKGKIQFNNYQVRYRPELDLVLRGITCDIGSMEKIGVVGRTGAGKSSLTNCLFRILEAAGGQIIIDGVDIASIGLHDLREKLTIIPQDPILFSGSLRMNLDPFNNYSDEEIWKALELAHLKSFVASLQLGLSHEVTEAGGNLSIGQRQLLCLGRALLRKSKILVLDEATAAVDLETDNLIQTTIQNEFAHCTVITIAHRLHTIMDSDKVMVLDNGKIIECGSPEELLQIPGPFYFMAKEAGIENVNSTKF
Chain of ATP-binding cassette sub-family C member 2 (Rattus norvegicus, UniProt Q63120) (Q63120 whole entry): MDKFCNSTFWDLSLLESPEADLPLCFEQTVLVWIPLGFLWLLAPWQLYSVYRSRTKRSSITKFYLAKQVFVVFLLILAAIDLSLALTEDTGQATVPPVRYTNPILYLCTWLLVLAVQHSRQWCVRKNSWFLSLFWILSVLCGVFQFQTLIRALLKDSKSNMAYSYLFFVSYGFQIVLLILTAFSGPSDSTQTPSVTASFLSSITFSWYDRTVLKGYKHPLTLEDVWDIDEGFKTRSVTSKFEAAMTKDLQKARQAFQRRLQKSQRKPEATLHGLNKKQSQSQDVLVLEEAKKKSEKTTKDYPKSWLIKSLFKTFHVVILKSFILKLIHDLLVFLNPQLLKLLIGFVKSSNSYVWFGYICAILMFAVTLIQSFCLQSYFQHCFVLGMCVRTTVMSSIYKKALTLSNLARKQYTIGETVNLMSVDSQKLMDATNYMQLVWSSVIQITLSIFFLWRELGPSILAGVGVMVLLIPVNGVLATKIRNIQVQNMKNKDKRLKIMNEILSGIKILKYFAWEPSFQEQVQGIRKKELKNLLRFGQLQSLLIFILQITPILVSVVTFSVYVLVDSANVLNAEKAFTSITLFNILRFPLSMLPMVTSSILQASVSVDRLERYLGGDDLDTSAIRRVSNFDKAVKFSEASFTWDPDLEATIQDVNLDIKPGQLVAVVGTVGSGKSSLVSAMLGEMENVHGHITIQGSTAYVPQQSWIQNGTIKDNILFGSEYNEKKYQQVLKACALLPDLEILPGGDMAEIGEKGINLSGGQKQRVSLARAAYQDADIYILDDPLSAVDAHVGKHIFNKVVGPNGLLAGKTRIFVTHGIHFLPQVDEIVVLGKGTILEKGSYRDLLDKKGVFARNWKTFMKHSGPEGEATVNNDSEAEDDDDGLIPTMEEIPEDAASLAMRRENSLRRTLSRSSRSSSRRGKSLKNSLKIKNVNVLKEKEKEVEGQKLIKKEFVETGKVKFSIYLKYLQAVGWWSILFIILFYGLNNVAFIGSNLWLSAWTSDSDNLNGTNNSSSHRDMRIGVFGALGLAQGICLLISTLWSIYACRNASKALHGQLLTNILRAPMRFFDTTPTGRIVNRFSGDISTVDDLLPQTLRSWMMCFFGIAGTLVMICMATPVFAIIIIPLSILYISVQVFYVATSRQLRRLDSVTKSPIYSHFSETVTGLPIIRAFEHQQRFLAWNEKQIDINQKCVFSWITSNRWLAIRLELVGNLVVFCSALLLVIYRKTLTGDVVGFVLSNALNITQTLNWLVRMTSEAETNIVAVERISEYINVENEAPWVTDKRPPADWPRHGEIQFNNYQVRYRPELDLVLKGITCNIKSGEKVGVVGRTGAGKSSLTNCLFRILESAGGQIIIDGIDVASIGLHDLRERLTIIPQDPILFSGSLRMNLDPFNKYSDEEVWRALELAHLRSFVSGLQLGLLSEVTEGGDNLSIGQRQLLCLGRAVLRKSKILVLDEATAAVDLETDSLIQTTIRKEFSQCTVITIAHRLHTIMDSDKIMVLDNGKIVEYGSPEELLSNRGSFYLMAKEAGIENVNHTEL

On to `CCCc1nc(C(C)(C)O)c(C(=O)O)n1Cc1ccc(-c2ccccc2-c2nnn[nH]2)cc1` [OLMESARTAN], for which the Activity entry is “substrate [+]” in data set [1], “substrate [+]” in data set [2], “substrate [+]” in data set [3] and “is not a substrate [-]” in data set [4]. The Km on OATP1B3 is 71.8 µM.

B1: Solute carrier organic anion transporter family member 1B1 (Homo sapiens) (protein)
chain: MDQNQHLNKTAEAQPSENKKTRYCNGLKMFLAALSLSFIAKTLGAIIMKSSIIHIERRFEISSSLVGFIDGSFEIGNLLVIVFVSYFGSKLHRPKLIGIGCFIMGIGGVLTALPHFFMGYYRYSKETNINSSENSTSTLSTCLINQILSLNRASPEIVGKGCLKESGSYMWIYVFMGNMLRGIGETPIVPLGLSYIDDFAKEGHSSLYLGILNAIAMIGPIIGFTLGSLFSKMYVDIGYVDLSTIRITPTDSRWVGAWWLNFLVSGLFSIISSIPFFFLPQTPNKPQKERKASLSLHVLETNDEKDQTANLTNQGKNITKNVTGFFQSFKSILTNPLYVMFVLLTLLQVSSYIGAFTYVFKYVEQQYGQPSSKANILLGVITIPIFASGMFLGGYIIKKFKLNTVGIAKFSCFTAVMSLSFYLLYFFILCENKSVAGLTMTYDGNNPVTSHRDVPLSYCNSDCNCDESQWEPVCGNNGITYISPCLAGCKSSSGNKKPIVFYNCSCLEVTGLQNRNYSAHLGECPRDDACTRKFYFFVAIQVLNLFFSALGGTSHVMLIVKIVQPELKSLALGFHSMVIRALGGILAPIYFGALIDTTCIKWSTNNCGTRGSCRTYNSTSFSRVYLGLSSMLRVSSLVLYIILIYAMKKKYQEKDINASENGSVMDEANLESLNKNKHFVPSAGADSETHC
For the molecule B1, the Km in data set [5] was found to be 42.6 µM.

A word on the Km: it is the concentration of substrate that gives half-maximal velocity.
